As a reminder, the IC50 is the concentration that inhibits the measured activity by half.

Chain of CBP (Q92793 1081-1197): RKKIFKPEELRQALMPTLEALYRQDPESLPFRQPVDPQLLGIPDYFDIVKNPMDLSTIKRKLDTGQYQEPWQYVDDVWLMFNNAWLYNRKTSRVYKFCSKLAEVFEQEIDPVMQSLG

This test concerns the target CBP (Homo sapiens (Human), UniProt Q92793). Kind of test: In vitro CBP inhibition (AlphaScreen, biotinylated H4-tetraacetyl peptide). Particulars: AlphaScreen, Table 29; read-out: CBP IC50. It counts as binding. The gist of the method:
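His-tagged CBP expressed in E. coli (50 nM final) incubated with biotinylated H4K5/8/12/16(Ac) peptide (20 nM final) in 50 mM HEPES pH 7.3, 10 mM NaCl, 0.25 mM TCEP, 0.1% BSA, 0.005% Brij-35, 0.4% DMSO, 20 min at room temp.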
(Bead proximity is the source of the signal in Alpha formats.)
In the case of `Cc1c(-c2cnn(Cc3ccccc3)c2)ccc(=O)n1C` [Example 195, 5-(1-Benzyl-1H-pyrazol-4-yl)-1,6-dimethyl-1H-pyridin-2-one], the IC50 is greater than 5000 nM. As to `COc1ncc(-c2cc(=O)n(C)cc2-c2cnn(-c3ccccc3Cl)c2)cc1C` [Example 316, 5′-(1-(2-chlorophenyl)-1H-pyrazol-4-yl)-6-methoxy-1′,5-dimethyl-[3,4′-bipyridin]-2′(1′H)-one], the IC50 is less than 500 nM. `CC1CN(c2cc(=O)n(C)cc2-c2cnn(C(C)c3ccccc3)c2)C1` (stereo not drawn) [Example 54, 1-methyl-4-(3-methylazetidin-1-yl)-5-(1-(1-phenylethyl)-1H-pyrazol-4-yl)pyridin-2(1H)-one]: the IC50 is less than 500 nM.

As to `CC(c1ccccc1)n1cc(-c2cn(C)c(=O)cc2-n2cccn2)cn1` (stereo not drawn) [Example 53, 1-methyl-5-(1-(1-phenylethyl)-1H-pyrazol-4-yl)-4-(1H-pyrazol-1-yl) pyridin-2(1H)-one], the IC50 was less than 500 nM.

On to `Cn1cc(-c2cnn(Cc3ccccc3)c2)c2ccccc2c1=O` [Example 8, 4-(1-benzyl-1H-pyrazol-4-yl)-2-methyliso-quinolin-1(2H)-one], for which the IC50 is less than 500 nM. For the molecule `Cn1cc(-c2cnn(-c3ccccc3C(=O)O)c2)c(-c2ccc(F)cc2)cc1=O` [Example 226, 2-{4-[4-(4-Fluoro-phenyl)-1-methyl-6-oxo-1,6-dihydro-pyridin-3-yl]-pyrazol-1-yl}-benzoic acid], the IC50 was less than 500 nM. Turning to `Cn1cc(-c2cnn(-c3ccccc3C#N)c2)c(-c2cccc(Cl)c2)cc1=O` [Example 216, 2-{4-[4-(3-Chloro-phenyl)-1-methyl-6-oxo-1,6-dihydro-pyridin-3-yl]-pyrazol-1-yl}-benzonitrile], the concentration for half-maximal inhibition (IC50) was less than 500 nM. To `CC(=O)N1CC(Oc2cc(=O)n(C)cc2-c2cnn(C(C)c3ccccc3)c2)C1` (stereo not drawn) [Example 50, 4-((1-acetylazetidin-3-yl)oxy)-1-methyl-5-(1-(1-phenylethyl)-1H-pyrazol-4-yl)pyridin-2(1H)-one] belongs less than 500 nM; to `CCOc1ccc(-c2cc(=O)n(C)cc2-c2cnn(-c3cc(OC)ccc3C(=O)O)c2)cn1` [Example 271, 2-[4-(6-Ethoxy-1′-methyl-6′-oxo-1′,6′-dihydro-[3,4′]bipyridinyl-3′-yl)-pyrazol-1-yl]-4-methoxy-benzoic acid], less than 500 nM; to `CC(C)Oc1cc(=O)n(C)cc1-c1cnn(-c2ccccc2C(=O)O)c1` [Example 203, 2-[4-(4-Isopropoxy-1-methyl-6-oxo-1,6-dihydro-pyridin-3-yl)-pyrazol-1-yl]-benzoic Acid], less than 500 nM. `CCOc1cc(=O)n(C)cc1-c1cnn(Cc2cccc(Br)c2)c1` [Example 105, 5-(1-(3-bromo-benzyl)-1H-pyrazol-4-yl)-4-ethoxy-1-methyl-pyridin-2(1H)-one]: the IC50 is less than 500 nM. To `CC(c1ccccc1)n1cc(-c2cn(C)c(=O)cc2OC2CCCCC2)cn1` (stereo not drawn) [Example 52, 4-(cyclohexyloxy)-1-methyl-5-(1-(1-phenylethyl)-1H-pyrazol-4-yl) pyridin-2(1H)-one] belongs less than 500 nM. Regarding `CC(c1ccccc1)n1cc(-c2cn(C)c(=O)cc2F)cn1` (stereo not drawn) [Example 21, 4-fluoro-1-methyl-5-(1-(1-phenylethyl)-1H-pyrazol-4-yl) pyridin-2(1H)-one], the IC50 is 500 to 5000 nM. In the case of `Cn1cc(-c2cnn(-c3ccccc3C#N)c2)c(-c2ccn(C3CC3)c(=O)c2)cc1=O` [Example 222, 2-[4-(1′-Cyclopropyl-1-methyl-6,2′-dioxo-1,6,1′,2′-tetrahydro-[4,4′]bipyridinyl-3-yl)-pyrazol-1-yl]-benzonitrile], the IC50 is less than 500 nM. To `Cn1cc(-c2cnn(-c3ccccc3C#N)c2)c(-c2cc[nH]c(=O)c2)cc1=O` [Example 205, 2-[4-(1-Methyl-6,2′-dioxo-1,6,1′,2′-tetrahydro-[4,4′]bipyridinyl-3-yl)-pyrazol-1-yl]-benzonitrile] belongs less than 500 nM.

The values above are taken from patent publication US10617680B2 (CELGENE QUANTICEL RESEARCH, INC., priority 2017, dated 2020).
